These results are taken from article PMC3602366 (Insect biochemistry and molecular biology, 2013).

Where no end group is shown, it is not given here.

One assay deals with SG acini. Conditions: paracrine factor; ref Kaufman et al., 1999; Šimo et al., 2011a; cited from earlier work.
The subject of a further assay is synganglion. As to conditions: ref Kaufman, 1978; McSwain et al., 1992; cited from earlier work.
For assay [1], the target named is MIP-R1 (I. scapularis myoinhibitory peptide receptor 1) (Ixodes scapularis, UniProt L7ZCA0). Put plainly: cell-based.
Assay [2] deals with SIFa-R (I. scapularis SIFamide receptor) (Ixodes scapularis, UniProt L7Z4E7). Put plainly: Receptor functional assay. Type of assay: cell-based.

`NCCc1ccc(O)c(O)c1` [Dopamine]: in the assay with SG acini, the “activation of SG acini” value is “acts as a paracrine factor for the activation of SG acini for fluid secretion”.

For `CC[C@@H]1C(=O)OC[C@@H]1Cc1cncn1C` [pilocarpine], the “activation of the synganglion” value in the assay with synganglion was “activates the synganglion”.

One may read the EC50 as the concentration that produces a half-maximal response. Read a high EC50 as weaker potency. ASDWNRLSGMW-NH2 [MIP2] yielded an EC50 in assay [1] of 32 nM.

The compound AYRKPPFNGSIF-NH2 [SIFamide] registered an EC50 in assay [2] of 5.8 nM.

In the case of ENHWNDLSGYW-NH2 [MIP3], a half-maximal effect in assay [1] (EC50) was put at 15 nM.

Take GGDWNALSGMW-NH2 [MIP1]: it took 40 nM to reach a half-maximal effect in assay [1] (EC50).
